≈ marks a conversion by molar mass, not a printed value. Where two headings read alike, the source gives them in different places.
Key:
[1] = test system: B. subtilis; assay: Inhibition of bacterial growth on agar plates (MIC); assay type: cell-based; conditions: Bacillus subtilis, 37° C., 24 hours
Description: (§1) Each compound is assayed against a panel of Bacillus, Enterococcus and Staphylococcus, and a Gram-negative bacterium Escherichia coli as negative control, grown in appropriate plate media solidified with 1.3% agar-agar. Stock solutions of the compounds in dimethylsulfoxide or water, depending on solubility, are added to sterile medium at a temperature of 60° C. […] One tenth mL of diluted bacteria containing 500-1000 colony-forming units (CFU) are plated and spread, and the plates incubated at 37° C. for 24 hours. MIC (minimum inhibitory concentration) is equivalent to the lowest concentration at which growth, i.e. colony formation, is not observed.

[2] = test system: S.aureus (Smith); assay: as above; assay type: cell-based; conditions: Staphylococcus aureus, 37° C., 24 hours
Description: as §1

[3] = test system: E. fecium; assay: as above; assay type: cell-based; conditions: 37° C., 24 hours
Description: as §1

[4] = test system: E. fecalis; assay: as above; assay type: cell-based; conditions: 37° C., 24 hours
Description: as §1

[5] = molecular target: B.subtilis pol IIIC (Bacillus subtilis, UniProt P13267); assay: biochemical
B.subtilis pol IIIC, sequence (P13267 whole entry): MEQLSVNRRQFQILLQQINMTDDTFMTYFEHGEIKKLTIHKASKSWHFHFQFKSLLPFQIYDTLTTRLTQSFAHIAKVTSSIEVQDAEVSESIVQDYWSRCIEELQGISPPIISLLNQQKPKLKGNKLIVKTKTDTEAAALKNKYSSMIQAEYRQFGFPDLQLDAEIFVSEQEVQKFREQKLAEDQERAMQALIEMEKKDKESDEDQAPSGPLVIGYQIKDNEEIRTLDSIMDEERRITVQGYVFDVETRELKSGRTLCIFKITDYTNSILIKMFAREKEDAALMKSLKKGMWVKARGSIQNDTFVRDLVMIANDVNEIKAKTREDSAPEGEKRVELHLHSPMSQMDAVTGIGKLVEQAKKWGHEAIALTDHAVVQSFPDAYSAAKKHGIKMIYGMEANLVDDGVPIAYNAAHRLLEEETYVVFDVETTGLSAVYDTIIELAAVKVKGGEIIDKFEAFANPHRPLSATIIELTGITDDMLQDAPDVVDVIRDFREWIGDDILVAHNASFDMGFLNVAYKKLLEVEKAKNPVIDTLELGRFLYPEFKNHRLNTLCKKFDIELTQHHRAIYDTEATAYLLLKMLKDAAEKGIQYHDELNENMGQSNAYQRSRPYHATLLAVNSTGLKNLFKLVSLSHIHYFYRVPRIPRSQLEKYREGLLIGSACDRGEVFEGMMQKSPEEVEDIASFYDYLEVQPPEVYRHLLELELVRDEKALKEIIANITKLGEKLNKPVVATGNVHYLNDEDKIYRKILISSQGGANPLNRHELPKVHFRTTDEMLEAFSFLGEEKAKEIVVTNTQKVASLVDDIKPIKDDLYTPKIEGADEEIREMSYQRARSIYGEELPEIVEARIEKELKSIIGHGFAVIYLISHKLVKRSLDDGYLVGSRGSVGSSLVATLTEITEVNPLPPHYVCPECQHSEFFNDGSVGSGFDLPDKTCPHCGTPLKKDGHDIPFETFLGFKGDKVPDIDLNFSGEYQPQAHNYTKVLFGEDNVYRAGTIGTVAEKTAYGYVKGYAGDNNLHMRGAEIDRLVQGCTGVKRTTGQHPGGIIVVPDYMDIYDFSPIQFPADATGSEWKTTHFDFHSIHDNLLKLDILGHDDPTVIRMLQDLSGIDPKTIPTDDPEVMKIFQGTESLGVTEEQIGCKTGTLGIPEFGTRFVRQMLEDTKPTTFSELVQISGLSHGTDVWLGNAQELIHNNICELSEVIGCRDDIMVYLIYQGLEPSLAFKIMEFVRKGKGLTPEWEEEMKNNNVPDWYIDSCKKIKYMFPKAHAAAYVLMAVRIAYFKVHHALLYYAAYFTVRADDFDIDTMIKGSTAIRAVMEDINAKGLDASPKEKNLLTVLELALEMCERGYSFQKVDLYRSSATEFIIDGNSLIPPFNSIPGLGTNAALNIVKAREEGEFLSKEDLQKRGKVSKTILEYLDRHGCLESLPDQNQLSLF
Description: DNA pol activity was assayed as described in Barnes et al., Nuc. Acids Res., 6:1203-19 (1979), using activated “nicked” calf-thymus DNA as template primer, 10 pM [^3H-methyl]-dTTP as the labelled dNTP substrate, and dATP, dCTP, and dGTP at 25 μM each.
Inhibitory activity of the compounds is determined by measuring the ability of the agent to inhibit enzyme-catalyzed incorporation of [^3H]-dTMP into nicked calf thymus DNA in the absence of the competitor dGTP or dATP (“truncated assay”) (see G. E. Wright and N. C. Brown, Inhibition of Bacillus subtilis DNA Polymerase III by Arylhydrazinopyrimidines: Novel Properties of 2-Thiouracil Derivatives, Biochim. Biophys. Acta 432:37-48 (1976)). Purified pol IIIC is added to a buffered solution containing Mg^2+, DTT, glycerol, nicked calf thymus DNA, saturating concentrations of dATP, dCTP, dTTP and [^3H]-dTTP. Reaction mixtures are incubated at 30° C. for 10 minutes, quenched and filtered, and radioactivity in the acid-insoluble material measured by scintillation counting. Experiments are done in triplicate. Inhibitors are assayed by addition of several dilutions of a stock solution of inhibitor (DMSO or water, depending on solubility) before enzyme addition. […] The truncated assay, i.e. exclusion of the competitive substrate dGTP or dATP, depending upon whether the compound is a uracil derivative or an isocytosine derivative, respectively, allows for the direct determination of apparent inhibitor constants (K,) in this assay system.

[6] = truncated assay, apparent inhibitor constant, read-out: K1 B.subtilis pol IIIC

SMILES	MIC [1] [µg/mL]	MIC [2] [µg/mL]	MIC [3] [µg/mL]	MIC [4] [µg/mL]	Ki [5, 6] [nM]	Ki [5] [nM]
CCc1cc(Nc2cc(=O)n(CCCCN3CCN(C(=O)c4ccco4)CC3)c(=O)[nH]2)ccc1C [Compound 40, 3-{4-[4-(2-Furoyl)piperazino]butyl}-6-(3-ethyl-4-methylanilino)uracil]	5 (≈ 10.4 µM)	5 (≈ 10.4 µM)	10 (≈ 20.9 µM)	5 (≈ 10.4 µM)	43	–
CCc1cc(Nc2cc(=O)n(CCCCN3CCN(Cc4ccccc4)CC3)c(=O)[nH]2)ccc1C [Compound 41, 3-[4-(4-Benzylpiperazino)butyl]-6-(3-ethyl-4-methylanilino)uracil]	5 (≈ 10.5 µM)	> 20	5 (≈ 10.5 µM)	10 (≈ 21 µM)	–	34
CCc1cc(Nc2cc(=O)n(CCCCN3CCN(c4ncccn4)CC3)c(=O)[nH]2)ccc1C [Compound 45, 3-{4-[4-(2-pyrimidinyl)piperazinyl]butyl}-6-(3-ethyl-4-methyylanilino)uracil]	2.5 (≈ 5.39 µM)	10 (≈ 21.6 µM)	5 (≈ 10.8 µM)	5 (≈ 10.8 µM)	43	–
CCc1cc(Nc2cc(=O)n(CCCCN3CCN(c4ccc(F)cc4)CC3)c(=O)[nH]2)ccc1C [Compound 46, 3-{4-[(4-fluorophenyl)piperazinyl]butyl}-6-(3-ethyl-4-methyylanilino)uracil]	5 (≈ 10.4 µM)	20 (≈ 41.7 µM)	5 (≈ 10.4 µM)	10 (≈ 20.9 µM)	70	–
CCc1cc(Nc2cc(=O)n(CCCCOC(=O)N3CCOCC3)c(=O)[nH]2)ccc1C [Compound 47, 3-[4-(N-morpholinocarbonyloxy)butyl]-6-(3-ethyl-4-methylanilino)uracil]	< 1.25	5 (≈ 11.6 µM)	5 (≈ 11.6 µM)	5 (≈ 11.6 µM)	–	71
CCc1cc(Nc2cc(=O)n(CCCCNS(=O)(=O)c3cccs3)c(=O)[nH]2)ccc1C [Compound 48, 3-[4-(2-thienylsulfonylamino)butyl]-6-(3-ethyl-4-methylanilino)uracil]	2.5 (≈ 5.4 µM)	5 (≈ 10.8 µM)	2.5 (≈ 5.4 µM)	5 (≈ 10.8 µM)	–	75
CCc1cc(Nc2cc(=O)n(CCCCNC(=O)C3CC3)c(=O)[nH]2)ccc1C [Compound 49, 3-{4-[(cyclopropylcarbonyl)amino]butyl}-6-(3-ethyl-4-methylanilino)uracil]	5 (≈ 13 µM)	5 (≈ 13 µM)	2.5 (≈ 6.5 µM)	5 (≈ 13 µM)	–	82
CCc1cc(Nc2cc(=O)n(CCCCNC(=O)CCl)c(=O)[nH]2)ccc1C [Compound 50, 3-{4-[(chloromethylcarbonyl)amino]butyl}-6-(3-ethyl-4-methylanilino)uracil]	2.5 (≈ 6.36 µM)	5 (≈ 12.7 µM)	10 (≈ 25.5 µM)	5 (≈ 12.7 µM)	–	35
CCc1cc(Nc2cc(=O)n(CCCCOC(=O)CCl)c(=O)[nH]2)ccc1C [Compound 51, 3-[4-(2-chloroacetoxy)butyl]-6-(3-ethyl-4-methylanilino)uracil]	0.313 (≈ 0.795 µM)	10 (≈ 25.4 µM)	5 (≈ 12.7 µM)	2.5 (≈ 6.35 µM)	–	40
CCc1cc(Nc2cc(=O)n(CCCCN3CCN(c4nc(C)cc(C(=O)O)n4)CC3)c(=O)[nH]2)ccc1C [Compound 60, 3-{4-[4-(6-methyl-4-carboxy-2-pyrimidinyl)-1-piperazinyl]butyl}-6-(3-ethyl-4-methylanilino)uracil]	40 (≈ 76.7 µM)	40 (≈ 76.7 µM)	40 (≈ 76.7 µM)	40 (≈ 76.7 µM)	–	16
CCc1cc(Nc2cc(=O)n(CCCCN3CCN(c4nc(C)cc(C(=O)OC)n4)CC3)c(=O)[nH]2)ccc1C [Compound 61, 3-{4-[4-(6-methyl-4-methoxycarbonyl-2-pyrimidinyl)-1-piperazinyl]butyl}-6-(3-ethyl-4-methylanilino)uracil]	10 (≈ 18.7 µM)	40 (≈ 74.7 µM)	20 (≈ 37.3 µM)	20 (≈ 37.3 µM)	–	66

From patent publication US20030114445A1, “N3-substituted 6-anilinopyrimidines and methods to treat-Gram-positive bacterial and mycoplasmal infections” (priority 2001, published 2003)
